Assay results published in US11286268B1, “EIF4E-inhibiting compounds and methods” (EFFECTOR THERAPEUTICS, INC., priority 2019, dated 2022).

Target: recombinant eIF4E (Homo sapiens (Human), UniProt P06730)
Experiment: Fluorescence polarization competition assay for eIF4E binding potency
Settings: inhibition of eIF4E/EDA-m7GDP-ATTO-550 binding; calculated IC50 values, Table 4B; read-out: IC50
Procedure, shortened: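 Competitive displacement format: compounds compete with a fluorescent m7GDP tracer (20 nM) for 75 nM recombinant eIF4E. Incubation is 30 min at room temperature, protected from light, with 1% DMSO. Polarization read gives IC50 over eight 3-fold concentrations.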

Chain of recombinant eIF4E (P06730 whole entry): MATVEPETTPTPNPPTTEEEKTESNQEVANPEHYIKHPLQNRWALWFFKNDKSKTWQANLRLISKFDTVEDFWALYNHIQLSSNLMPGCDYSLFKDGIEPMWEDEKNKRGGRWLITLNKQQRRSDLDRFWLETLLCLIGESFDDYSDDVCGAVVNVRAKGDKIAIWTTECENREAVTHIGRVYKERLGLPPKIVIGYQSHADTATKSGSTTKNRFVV

IC50	Structure (SMILES)
36.6 nM	Cc1nc2cnc(N3CCN(CC(F)F)CC3)c(C#N)c2c(=O)n1CCOc1ccc(Cl)cc1-c1ccnc2c(C(=O)O)csc12 [compound 1303]
18.5 nM	Cc1nc2cnc(N3CCN(CC(F)(F)F)CC3)c(C#N)c2c(=O)n1CCOc1ccc(Cl)cc1-c1ccnc2c(C(=O)O)csc12 [compound 1304]
26.5 nM	Cc1nc2cnc(N3CCN(C)C(C(F)F)C3)c(C#N)c2c(=O)n1CCOc1ccc(Cl)cc1-c1ccnc2c(C(=O)O)csc12 (stereo not drawn) [compound 1305]
38.9 nM	Cc1nc2cnc(N3CCN(C4CC4)CC3)c(C#N)c2c(=O)n1CCOc1ccc(Cl)cc1-c1ccnc2c(C(=O)O)csc12 [compound 1306]
54.2 nM	Cc1nc2cnc(N3CCN(C4CC(F)(F)C4)CC3)c(C#N)c2c(=O)n1CCOc1ccc(Cl)cc1-c1ccnc2c(C(=O)O)csc12 [compound 1307]
41.5 nM	Cc1nc2cnc(N3CCN(CCC(F)(F)F)CC3)c(C#N)c2c(=O)n1CCOc1ccc(Cl)cc1-c1ccnc2c(C(=O)O)csc12 [compound 1308]
37.2 nM	Cc1nc2cnc(N3CCN(C(C)(C)C(F)F)CC3)c(C#N)c2c(=O)n1CCOc1ccc(Cl)cc1-c1ccnc2c(C(=O)O)csc12 [compound 1309]
21.3 nM	Cc1nc2cnc(N3CCN(C4(C(F)F)CC4)CC3)c(C#N)c2c(=O)n1CCOc1ccc(Cl)cc1-c1ccnc2c(C(=O)O)csc12 [compound 1310]
13.3 nM	Cc1nc2cnc(N3CCN4CC(F)(F)CC4C3)c(C#N)c2c(=O)n1CCOc1ccc(Cl)cc1-c1ccnc2c(C(=O)O)csc12 (stereo not drawn) [compound 1311]
8.29 nM	Cc1nc2cnc(N3CCN(C(C)C(F)F)CC3)c(C#N)c2c(=O)n1CCOc1ccc(Cl)cc1-c1ccnc2c(C(=O)O)csc12 (stereo not drawn) [compound 1312]
42.6 nM	Cc1nc2cnc(N3CCN(C(C)(C)C)CC3)c(C#N)c2c(=O)n1CCOc1ccc(Cl)cc1-c1ccnc2c(C(=O)O)csc12 [compound 1313]
18.1 nM	Cc1nc2cnc(N3CC4(C3)CN(C3CC3)C4)c(C#N)c2c(=O)n1CCOc1ccc(Cl)cc1-c1ccnc2c(C(=O)O)csc12 [compound 1314]
13.1 nM	Cc1nc2cnc(N3CCN(C(C)C(F)(F)F)CC3)c(C#N)c2c(=O)n1CCOc1ccc(Cl)cc1-c1ccnc2c(C(=O)O)csc12 (stereo not drawn) [compound 1315]
32.8 nM	Cc1nc2cnc(N3CCN(C(C)(C)C(F)(F)F)CC3)c(C#N)c2c(=O)n1CCOc1ccc(Cl)cc1-c1ccnc2c(C(=O)O)csc12 [compound 1316]
33.5 nM	Cc1nc2cnc(N3CCN(CC(C)(C)F)CC3)c(C#N)c2c(=O)n1CCOc1ccc(Cl)cc1-c1ccnc2c(C(=O)O)csc12 [compound 1317]
13.6 nM	Cc1nc2cnc(N(C)C3CCN(C4CC4)CC3)c(C#N)c2c(=O)n1CCOc1ccc(Cl)cc1-c1ccnc2c(C(=O)O)csc12 [compound 1319]
27.7 nM	Cc1nc2cnc(N(C)C3CCN(C4COC4)CC3)c(C#N)c2c(=O)n1CCOc1ccc(Cl)cc1-c1ccnc2c(C(=O)O)csc12 [compound 1320]
60.2 nM	Cc1nc2cnc(N3CCN(C4COC4)CC3)c(C#N)c2c(=O)n1CC#Cc1ccc(Cl)cc1-c1ccnc2c(C(=O)O)csc12 [compound 1321]
11.2 nM	Cc1nc2cnc(N3CC4(C3)CN(C3COC3)C4)c(C#N)c2c(=O)n1CC#Cc1ccc(Cl)cc1-c1ccnc2c(C(=O)O)csc12 [compound 1322]

IC50	Structure (SMILES)
73 nM	Cc1nc2cnc(N(C)C3CCN(C)C3)c(C#N)c2c(=O)n1CCOc1ccc(Cl)cc1-c1ccnc2c(C(=O)O)csc12 (stereo not drawn) [compound 1323]
27.1 nM	Cc1nc2cnc(-c3ccc(CN(C)C)nc3)c(C#N)c2c(=O)n1CCOc1ccc(Cl)cc1-c1ccnc2c(C(=O)O)csc12 [compound 1325]
12.8 nM	Cc1nc2cnc(C#CCN(C)CCF)c(C#N)c2c(=O)n1CCOc1ccc(Cl)cc1-c1ccnc2c(C(=O)O)csc12 [compound 1326]
19.3 nM	Cc1nc2cnc(C#CCN(C)CC(F)(F)F)c(C#N)c2c(=O)n1CCOc1ccc(Cl)cc1-c1ccnc2c(C(=O)O)csc12 [compound 1327]
24.8 nM	Cc1nc2cnc(/C=C/CN(C)CCF)c(C#N)c2c(=O)n1CCOc1ccc(Cl)cc1-c1ccnc2c(C(=O)O)csc12 [compound 1328]
35.2 nM	Cc1nc2cnc(C#CC3(N(C)C)CC3)c(C#N)c2c(=O)n1CCOc1ccc(Cl)cc1-c1ccnc2c(C(=O)O)csc12 [compound 1329]
13 nM	Cc1nc2cnc(C3CN(C)CCO3)c(C#N)c2c(=O)n1CCOc1ccc(Cl)cc1-c1ccnc2c(C(=O)O)csc12 (stereo not drawn) [compound 1330]
91.8 nM	Cc1nc2cncc(SCCN(C)C)c2c(=O)n1CCOc1ccc(Cl)cc1-c1ccnc2c(C(=O)O)csc12 [compound 1331]
34.5 nM	Cc1nc2cnc(C3=C(C(C)(C)C)CN(C)C3)c(C#N)c2c(=O)n1CCOc1ccc(Cl)cc1-c1ccnc2c(C(=O)O)csc12 [compound 1332]
26.2 nM	Cc1nc2cnc(N3CCN(CCF)C(C)(C)C3)c(C#N)c2c(=O)n1CCOc1ccc(Cl)cc1-c1ccnc2c(C(=O)O)csc12 [compound 1333]
51.3 nM	Cc1nc2cnc(N3CCN(C)C(C(F)(F)F)C3)c(C#N)c2c(=O)n1CCOc1ccc(Cl)cc1-c1ccnc2c(C(=O)O)csc12 (stereo not drawn) [compound 1334]
12.8 nM	Cc1nc2cnc(N3CCN(C)CC3C)c(C#N)c2c(=O)n1CCOc1ccc(Cl)cc1-c1ccnc2c(C(=O)O)csc12 (stereo not drawn) [compound 1335]
13 nM	Cc1nc2cnc(N3CCN(C4(CF)CC4)CC3)c(C#N)c2c(=O)n1CCOc1ccc(Cl)cc1-c1ccnc2c(C(=O)O)csc12 [compound 1336]
51.9 nM	Cc1nc2cnc(N3CCN(C)C4(CC4)C3)c(C#N)c2c(=O)n1CCOc1ccc(Cl)cc1-c1ccnc2c(C(=O)O)csc12 [compound 1337]
9.5 nM	Cc1nc2cnc(N3CCN(CCF)C4(CC4)C3)c(C#N)c2c(=O)n1CCOc1ccc(Cl)cc1-c1ccnc2c(C(=O)O)csc12 [compound 1338]
36.4 nM	Cc1nc2cnc(N3CCN(CCS(C)(=O)=O)CC3)c(C#N)c2c(=O)n1CCOc1ccc(Cl)cc1-c1ccnc2c(C(=O)O)csc12 [compound 1339]
44.2 nM	Cc1nc2cnc(N3CC(N4CCC(F)(F)CC4)C3)c(C#N)c2c(=O)n1CCOc1ccc(Cl)cc1-c1ccnc2c(C(=O)O)csc12 [compound 1340]
21.5 nM	Cc1nc2cnc(N3CC(N4CC(F)(F)C4)C3)c(C#N)c2c(=O)n1CCOc1ccc(Cl)cc1-c1ccnc2c(C(=O)O)csc12 [compound 1341]
30.4 nM	Cc1nc2cnc(N3CCN(C)C(CC#N)C3)c(C#N)c2c(=O)n1CCOc1ccc(Cl)cc1-c1ccnc2c(C(=O)O)csc12 (stereo not drawn) [compound 1342]

IC50	Structure (SMILES)
40.6 nM	Cc1nc2cnc(N3CCN(C(C)(C)CC#N)CC3)c(C#N)c2c(=O)n1CCOc1ccc(Cl)cc1-c1ccnc2c(C(=O)O)csc12 [compound 1343]
18.3 nM	Cc1nc2cnc(C#CC3CCCN3C3CC3)c(C#N)c2c(=O)n1CCOc1ccc(Cl)cc1-c1ccnc2c(C(=O)O)csc12 (stereo not drawn) [compound 1344]
34.5 nM	Cc1nc2cnc(CCCN(C)CCF)c(C#N)c2c(=O)n1CCOc1ccc(Cl)cc1-c1ccnc2c(C(=O)O)csc12 [compound 1345]
19.7 nM	Cc1nc2cnc(C#CCN(C)C3(C)CC3)c(C#N)c2c(=O)n1CCOc1ccc(Cl)cc1-c1ccnc2c(C(=O)O)csc12 [compound 1346]
41.4 nM	Cc1nc2cnc(N3CCN(C)C4CC43)c(C#N)c2c(=O)n1C/C=C/c1ccc(Cl)cc1-c1ccnc2c(C(=O)O)csc12 (stereo not drawn) [compound 1347]
12.2 nM	Cc1nc2cnc(N3CCN4CCC3C4)c(C#N)c2c(=O)n1CCOc1ccc(Cl)cc1-c1ccnc2c(C(=O)O)csc12 (stereo not drawn) [compound 1348]
36.5 nM	Cc1nc2cnc(SC3CCN(CC(F)(F)F)CC3)c(C#N)c2c(=O)n1CCOc1ccc(Cl)cc1-c1ccnc2c(C(=O)O)csc12 [compound 1349]
35.1 nM	Cc1nc2cnc(N3C[C@@H](C)N(CC(F)F)[C@@H](C)C3)c(C#N)c2c(=O)n1CCOc1ccc(Cl)cc1-c1ccnc2c(C(=O)O)csc12 [compound 1350]
16 nM	Cc1nc2cnc(N3CCN(C)C4(COC4)C3)c(C#N)c2c(=O)n1CCOc1ccc(Cl)cc1-c1ccnc2c(C(=O)O)csc12 [compound 1351]
17.2 nM	Cc1nc2cnc(N3CCN(CCC(F)(F)F)CC3)c(C#N)c2c(=O)n1CC#Cc1ccc(Cl)cc1-c1ccnc2c(C(=O)O)csc12 [compound 1353]
21.6 nM	Cc1nc2cnc(N3CCN(C4CC4)CC3)c(C#N)c2c(=O)n1CC#Cc1ccc(Cl)cc1-c1ccnc2c(C(=O)O)csc12 [compound 1354]
24.8 nM	Cc1nc2cnc(N3CCN(C4CC(F)(F)C4)CC3)c(C#N)c2c(=O)n1CC#Cc1ccc(Cl)cc1-c1ccnc2c(C(=O)O)csc12 [compound 1355]
23.2 nM	Cc1nc2cnc(N3CCN(CC(F)F)CC3)c(C#N)c2c(=O)n1CC#Cc1ccc(Cl)cc1-c1ccnc2c(C(=O)O)csc12 [compound 1356]
18.3 nM	Cc1nc2cnc(N3CCN(CC(F)C(F)(F)F)CC3)c(C#N)c2c(=O)n1CCOc1ccc(Cl)cc1-c1ccnc2c(C(=O)O)csc12 (stereo not drawn) [compound 1358]
39.7 nM	Cc1nc2cnc(N3CCN(CC(C(F)(F)F)C(F)(F)F)CC3)c(C#N)c2c(=O)n1CCOc1ccc(Cl)cc1-c1ccnc2c(C(=O)O)csc12 [compound 1359]
16.8 nM	Cc1nc2cnc(N(C)C3CCN(CCC(F)(F)F)CC3)c(C#N)c2c(=O)n1CCOc1ccc(Cl)cc1-c1ccnc2c(C(=O)O)csc12 [compound 1360]
21.3 nM	Cc1nc2cnc(N3CCN(C4(CC(F)(F)F)CC4)CC3)c(C#N)c2c(=O)n1CCOc1ccc(Cl)cc1-c1ccnc2c(C(=O)O)csc12 [compound 1361]
14.1 nM	Cc1nc2cnc(N3CCN(CC(F)(F)F)CC3)c(C#N)c2c(=O)n1CC#Cc1ccc(Cl)cc1-c1ccnc2c(C(=O)NS(C)(=O)=O)csc12 [compound 1362]
42.9 nM	Cc1nc2cnc(N3CC4(CC4)N(C)C4(CC4)C3)c(C#N)c2c(=O)n1CCOc1ccc(Cl)cc1-c1ccnc2c(C(=O)O)csc12 [compound 1363]
